Patent US6214537A, “Synthetic peptides and mixtures thereof for detecting HIV antibodies” (Biochem Immunosystems, Inc., priority 1988, dated 2001)
Positions of bridges follow the written chain, without caps; N, C: chain ends. Residues, ends and D or L forms follow the SMILES beside them.

Key:
HIV-1 antibodies [1] = experiment: ELISA, single peptides identifying HIV-1 positive sera; type: binding, human; conditions: ELISA, single peptide
Description: According to this test a peptide or a peptide mixture of the present invention is adsorbed onto the wells of a microtiter plate. The wells are then treated with sera to be tested. After washing, anti-human IgG labeled with peroxidase is added to the wells. The determination of the peroxidase is performed with a corresponding substrate, e.g. with o-phenylene diamine. Also in this procedure the peroxidase can be exchanged by another label, e.g. by a radioactive or fluorescence label.
(§1) Each well of the microtiter plate is saturated with 100 μl of a solution containing a peptide or mixture of peptides (5 μg/ml) and left overnight. The wells are emptied and washed twice with a washing buffer (Tris, 0.043M; NaCl, 0.5M;thimerosal, 0.01% w/v; Tween 20, 0.05% v/v; pH 7.4). The wells are then saturated with 0.35 ml of washing buffer for 1 hr. at 37° C. and washed once with the same buffer. Serum samples to be analyzed are diluted with specimen buffer (washing buffer plus casein, 0.05% w/v). The wells are rinsed with washing buffer prior to the addition of the diluted serum sample (0.1 ml). These are left to incubate for 1 hr. at room temperature. The wells are then emptied, washed twice rapidly and then once for two minutes with washing buffer. […] The wells are then emptied and washed twice rapidly with washing buffer and then five times in which the buffer was in contact with the well 2 minutes per washing.
(§2) The substrate solution (3,3', 5,5'-tetramethylbenzidine, 8 mg per ml of DMSO) is diluted with 100 volumes 0.1M citrate-acetate buffer, pH 5.6 containing 0.1% v/v of 30% H2 O2 and added to each well (0.1 ml per well). After 10 minutes the contents of each well is treated with 0.1 ml 2N H2 SO4 and the optical density read at 450 nm. All determinations are done in duplicate.

HIV-1-antibodies = experiment: ELISA, cyclic versus non-cyclic peptides, sera at various dilutions; type: binding, human
Description: TABLE 5 is provided to illustrate the sensitivity of cyclic versus noncyclic peptides in the ELISA test by comparing the results of some sera at various dilutions.
(§3) Plates used in this experiment were coated with solutions of peptides at 10 μg/ml. (Experimental results of TABLE 5 were obtained with plates coated with peptides at 0,5 μg/ml). Four different HIV-1 positive serum samples were serially diluted and their titers determined. The titer was defined as the serum dilution giving an absorbancy reading of 1:0 in the conditions of the ELISA procedure already described.
as §1, §2

[2] = test system: antibodies specific to HIV-1; experiment: ELISA serum titers, plates coated with cyclic 87c versus linear 87; type: binding, human
Source text: (§4) Even though results presented in TABLE 5 clearly show the superiority of cyclic peptides over their linear counterpart in detecting HIV-1-antibodies, that increased sensitivity could have been underestimated because of probable cyclization and polymerization of the linear peptide after solubilization in a carbonate buffer (pH 9.6). That experiment was repeated with the linear 87 and cyclic 87c peptides dissolved in a carbonate buffer (pH 9.6) as before and also in 10% acetic acid (pH 2.7). […] It is believed that cydization and polymerization also occured in the wells of the microtiter plates although the exact proportion of cyclic peptide bound to the plates versus linear has not been as yet determined.
as §3
The ratios of sensitivities measured with the cyclic peptide over the linear 87 peptide vary between 1:3 and 2:2 with an average of 1:8. These ratios are even larger, varying from 3:0 to 4:5, when the sensitivity of the ELISA test using the cyclic 87c peptide is compared using conditions (acidic pH) where the linear 87 peptide remains linear and is not allowed to cyclize or polymerize.

HIV-1 antibodies [3] = experiment: ELISA plates coated with cyclic 87c versus linear 87 or polymers of 87: sensitivity and background; type: binding, human
[4] = State of peptide in coating solution (HPLC, Ellman's test); type: physicochemical; conditions: for state of peptide in solution (HPLC, Ellman's test): 10% acetic acid (pH 2.7)
Source text: as §4

HIV-1 antibodies [5] = conditions: cited from earlier work
[6] = coating buffer 10% Acetic Acid (pH 2.7), serum M-5, coated at 10 μg/ml
[7] = coating buffer 10% Acetic Acid (pH 2.7), serum M-7, coated at 10 μg/ml
[8] = coating buffer 10% Acetic Acid (pH 2.7), serum M-8, coated at 10 μg/ml
[9] = coating buffer 10% Acetic Acid (pH 2.7), serum M-16, coated at 10 μg/ml
[10] = coating buffer Carbonate Bicarbonate 0.1M (pH 9.6), serum M-5, coated at 10 μg/ml
[11] = coating buffer Carbonate Bicarbonate 0.1M (pH 9.6), serum M-7, coated at 10 μg/ml
[12] = coating buffer Carbonate Bicarbonate 0.1M (pH 9.6), serum M-8, coated at 10 μg/ml
[13] = coating buffer Carbonate Bicarbonate 0.1M (pH 9.6), serum M-16, coated at 10 μg/ml

CC[C@H](C)[C@H](NC(=O)CNC(=O)[C@H](CC(C)C)NC(=O)[C@H](CC(C)C)NC(=O)[C@H](CCC(N)=O)NC(=O)[C@H](CCC(N)=O)NC(=O)[C@H](CC(=O)O)NC(=O)[C@H](CCCCN)NC(=O)[C@H](CC(C)C)NC(=O)[C@H](Cc1ccc(O)cc1)NC(=O)[C@H](CCCNC(=N)N)NC(=O)[C@H](CCC(=O)O)NC(=O)[C@@H](NC(=O)[C@H](C)NC(=O)[C@H](CC(C)C)NC(=O)[C@@H](NC(=O)[C@@H](N)CCCNC(=N)N)[C@@H](C)CC)C(C)C)C(=O)N[C@@H](Cc1c[nH]c2ccccc12)C(=O)NCC(=O)N[C@H]1CSSC[C@@H](C(=O)N[C@H](C(=O)N[C@H](C(=O)N[C@@H](C)C(=O)N[C@H](C(=O)N2CCC[C@H]2C(=O)N[C@@H](Cc2c[nH]c3ccccc23)C(=O)N[C@@H](CC(N)=O)C(=O)N[C@@H](C)C(=O)N[C@@H](CO)C(=O)O)C(C)C)[C@@H](C)O)[C@@H](C)O)NC(=O)[C@H]([C@@H](C)CC)NC(=O)[C@H](CC(C)C)NC(=O)[C@H](CCCCN)NC(=O)CNC(=O)[C@H](CO)NC1=O [Peptide 87c] (H-RILAVERYLKDQQLLGIWGCSGKLICTTAVPWNAS-OH; disulfide 20-26)
% Positive Sera correctly Identified (HIV-1 antibodies [1]): 99%
ELISA optical density (HIV-1-antibodies; serum 87V103, dilution 1/50): 0.011 optical density units
ELISA optical density (HIV-1-antibodies; serum 1428, dilution 1/50): > 2.0 optical density units
ELISA optical density (HIV-1-antibodies; serum M-5, dilution 1/50): > 2.0 optical density units
ELISA optical density (HIV-1-antibodies; serum M-5, dilution 1/100): > 2.0 optical density units
ELISA optical density (HIV-1-antibodies; serum M-5, dilution 1/200): > 2.0 optical density units
ELISA optical density (HIV-1-antibodies; serum M-5, dilution 1/400): > 2.0 optical density units
ELISA optical density (HIV-1-antibodies; serum M-5, dilution 1/800): 1.854 optical density units
ELISA optical density (HIV-1-antibodies; serum M-7, dilution 1/50): > 2.0 optical density units
ELISA optical density (HIV-1-antibodies; serum M-7, dilution 1/100): > 2.0 optical density units
ELISA optical density (HIV-1-antibodies; serum M-7, dilution 1/200): 1.729 optical density units
ELISA optical density (HIV-1-antibodies; serum M-7, dilution 1/400): 1.348 optical density units
ELISA optical density (HIV-1-antibodies; serum M-7, dilution 1/800): 0.611 optical density units
ELISA optical density (HIV-1-antibodies; serum M-8, dilution 1/50): > 2.0 optical density units
ELISA optical density (HIV-1-antibodies; serum M-8, dilution 1/100): > 2.0 optical density units
ELISA optical density (HIV-1-antibodies; serum M-8, dilution 1/200): 1.655 optical density units
ELISA optical density (HIV-1-antibodies; serum M-8, dilution 1/400): 1.064 optical density units
ELISA optical density (HIV-1-antibodies; serum M-8, dilution 1/800): 0.384 optical density units
ELISA optical density (HIV-1-antibodies; serum M-16, dilution 1/50): > 2.0 optical density units
ELISA optical density (HIV-1-antibodies; serum M-16, dilution 1/100): > 2.0 optical density units
ELISA optical density (HIV-1-antibodies; serum M-16, dilution 1/200): > 2.0 optical density units
ELISA optical density (HIV-1-antibodies; serum M-16, dilution 1/400): > 2.0 optical density units
ELISA optical density (HIV-1-antibodies; serum M-16, dilution 1/800): 1.962 optical density units
titer ratio A/B (87c cyclic / 87 linear) ([2]; 10% Acetic Acid (pH 2.7), serum M-5): 3.0
titer ratio A/B (87c cyclic / 87 linear) ([2]; 10% Acetic Acid (pH 2.7), serum M-7): 3.9
titer ratio A/B (87c cyclic / 87 linear) ([2]; 10% Acetic Acid (pH 2.7), serum M-8): 4.5
titer ratio A/B (87c cyclic / 87 linear) ([2]; 10% Acetic Acid (pH 2.7), serum M-16): 3.7
titer ratio A/B (87c cyclic / 87 linear) ([2]; Carbonate Bicarbonate 0.1M (pH 9.6), serum M-5): 1.3
titer ratio A/B (87c cyclic / 87 linear) ([2]; Carbonate Bicarbonate 0.1M (pH 9.6), serum M-7): 1.8
titer ratio A/B (87c cyclic / 87 linear) ([2]; Carbonate Bicarbonate 0.1M (pH 9.6), serum M-8): 2.2
titer ratio A/B (87c cyclic / 87 linear) ([2]; Carbonate Bicarbonate 0.1M (pH 9.6), serum M-16): 1.7
serum titer [2, 6]: 13500
serum titer [2, 7]: 9000
serum titer [2, 8]: 6300
serum titer [2, 9]: 56000
serum titer [2, 10]: 13500
serum titer [2, 11]: 11000
serum titer [2, 12]: 6500
serum titer [2, 13]: 56000
sensitivity in detecting HIV-1 antibodies compared with plates coated with pool of fractions containing only polymers of peptide 87 (HIV-1 antibodies [3]): superiority
state of peptide in solution (HPLC, Ellman's test) [4]: remained cyclic

NH2 -RILAVERYLKDQQLLGIWGCSGKLICTTAVPWNAS-COOH [Peptide 87]
% Positive Sera correctly Identified (HIV-1 antibodies [1]): 99%
ELISA optical density (HIV-1-antibodies; serum 87V103, dilution 1/50): 0.005 optical density units
ELISA optical density (HIV-1-antibodies; serum 1428, dilution 1/50): 1.463 optical density units
ELISA optical density (HIV-1-antibodies; serum M-5, dilution 1/50): 1.809 optical density units
ELISA optical density (HIV-1-antibodies; serum M-5, dilution 1/100): 1.685 optical density units
ELISA optical density (HIV-1-antibodies; serum M-5, dilution 1/200): 1.513 optical density units
ELISA optical density (HIV-1-antibodies; serum M-5, dilution 1/400): 1.418 optical density units
ELISA optical density (HIV-1-antibodies; serum M-5, dilution 1/800): 1.012 optical density units
ELISA optical density (HIV-1-antibodies; serum M-7, dilution 1/50): 1.504 optical density units
ELISA optical density (HIV-1-antibodies; serum M-7, dilution 1/100): 1.329 optical density units
ELISA optical density (HIV-1-antibodies; serum M-7, dilution 1/200): 1.184 optical density units
ELISA optical density (HIV-1-antibodies; serum M-7, dilution 1/400): 0.923 optical density units
ELISA optical density (HIV-1-antibodies; serum M-7, dilution 1/800): 0.571 optical density units
ELISA optical density (HIV-1-antibodies; serum M-8, dilution 1/50): 1.390 optical density units
ELISA optical density (HIV-1-antibodies; serum M-8, dilution 1/100): 1.087 optical density units
ELISA optical density (HIV-1-antibodies; serum M-8, dilution 1/200): 0.883 optical density units
ELISA optical density (HIV-1-antibodies; serum M-8, dilution 1/400): 0.593 optical density units
ELISA optical density (HIV-1-antibodies; serum M-8, dilution 1/800): 0.240 optical density units
ELISA optical density (HIV-1-antibodies; serum M-16, dilution 1/50): 1.846 optical density units
ELISA optical density (HIV-1-antibodies; serum M-16, dilution 1/100): 1.784 optical density units
ELISA optical density (HIV-1-antibodies; serum M-16, dilution 1/200): 1.740 optical density units
ELISA optical density (HIV-1-antibodies; serum M-16, dilution 1/400): 1.634 optical density units
ELISA optical density (HIV-1-antibodies; serum M-16, dilution 1/800): 1.537 optical density units
serum titer [2, 6]: 4500
serum titer [2, 7]: 2300
serum titer [2, 8]: 1400
serum titer [2, 9]: 15000
serum titer [2, 10]: 10500
serum titer [2, 11]: 6000
serum titer [2, 12]: 2900
serum titer [2, 13]: 33000
state of peptide in solution (HPLC, Ellman's test) [4]: remained linear
state of peptide in solution (HPLC) ([4]; carbonate buffer (pH 9.6), room temperature): underwent cyclization and polymerization

SGKLICTTAVPWNAS [short synthetic peptide covering residues 606 to 620 of gp41 (HIV-1), U.S. Ser. No. 120,027]
sensitivity (HIV-1 antibodies [5]; HIV-1 seropositive samples, literature): 89%
specificity (samples correctly identified) (HIV-1 antibodies [5]; U.S. Ser. No. 120,027): 63/63
